# What was measured:
# Experiment in all cases: relative viability (nuclei count vs DMSO), 5 days (fraction); higher = more cells survive
# [1] = compound: C(C(=O)C(=O)O)Br [Bromopyruvate] + CC(=O)Nc1cccc(-n2c(=O)n(C3CC3)c(=O)c3c(Nc4ccc(I)cc4F)n(C)c(=O)c(C)c32)c1 [Trametinib] (partner 0.02 µM)
# Summary of the method: (§1)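 Relative viability equals treated-well nuclei counts divided by vehicle-well nuclei counts. Counts came from 4× images of lung cancer cell lines grown in 1536-well plates for 5 days after pin-tool dosing on the day after seeding. Dosing used one drug alone or a fixed anchor-drug dose plus five library-drug doses (not always all listed) in √10 steps, and values are medians of duplicate plates.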
# [2] = compound: C(C(=O)C(=O)O)Br [Bromopyruvate] + N=C(N)NC(=N)NCCc1ccccc1 [Phenformin] (partner 250 µM)
# Summary of the method: as §1
# [3] = compound: C(C(=O)C(=O)O)Br [Bromopyruvate] + Nc1ncn([C@H]2C[C@H](O)[C@@H](CO)O2)c(=O)n1 [Decitabine] (partner 2 µM)
# Summary of the method: as §1
# [4] = compound: CC(O)(CS(=O)(=O)c1ccc(F)cc1)C(=O)Nc1ccc(C#N)c(C(F)(F)F)c1 [Bicalutamide] + CC1(C)CCC(c2ccc(Cl)cc2)=C(CN2CCN(c3ccc(C(=O)NS(=O)(=O)c4ccc(N[C@H](CCN5CCOCC5)CSc5ccccc5)c(S(=O)(=O)C(F)(F)F)c4)cc3)CC2)C1 [Navitoclax] (partner 0.5 µM)
# Summary of the method: as §1
Cell Line,relative viability ([1]; first compound 1 µM),relative viability ([1]; first compound 3.162 µM),relative viability ([1]; first compound 10 µM),relative viability ([1]; first compound 31.62 µM),relative viability ([1]; first compound 100 µM),relative viability ([2]; first compound 1 µM),relative viability ([2]; first compound 3.162 µM),relative viability ([2]; first compound 10 µM),relative viability ([2]; first compound 31.62 µM),relative viability ([2]; first compound 100 µM),relative viability ([3]; first compound 1 µM),relative viability ([3]; first compound 3.162 µM),relative viability ([3]; first compound 10 µM),relative viability ([3]; first compound 31.62 µM),relative viability ([3]; first compound 100 µM),relative viability ([4]; first compound 0.08 µM),relative viability ([4]; first compound 0.253 µM),relative viability ([4]; first compound 0.8 µM),relative viability ([4]; first compound 2.53 µM)
SW 1573,0.582,0.576,0.608,0.432,0.0469,0.387,0.446,0.385,0.34,0.0639,0.498,0.574,0.534,0.304,0.0598,0.908,0.914,1.17,1.16
NCI-H1975,0.361,0.334,0.329,0.345,0.365,0.431,0.443,0.439,0.407,0.367,0.396,0.402,0.341,0.394,0.413,0.951,1.05,1.23,1.12
NCI-H1651,0.817,0.866,0.891,0.825,0.836,0.323,0.345,0.429,0.331,0.349,0.604,0.587,0.709,0.548,0.588,0.89,0.957,0.956,0.951
NCI-H460,0.164,0.101,0.132,0.18,0.235,0.512,0.556,0.658,0.494,0.508,0.484,0.459,0.679,0.46,0.468,1.13,1.1,1.39,1.22
LCLC-97TM1,0.193,0.188,0.2,0.165,0.277,0.411,0.397,0.359,0.439,0.415,0.246,0.226,0.263,0.243,0.16,0.558,0.379,0.573,0.572
NCI-H838,0.521,0.529,0.68,0.539,0.516,0.557,0.604,0.656,0.603,0.555,0.485,0.461,0.408,0.405,0.457,1.1,1.07,1.25,0.854
NCI-H1355,0.415,0.467,0.335,0.452,0.445,0.473,0.481,0.442,0.483,0.504,0.382,0.328,0.316,0.343,0.336,1.06,0.919,0.928,0.983
HOP-62,0.405,0.343,0.372,0.408,0.485,0.704,0.643,0.645,0.737,0.696,0.217,0.229,0.186,0.211,0.138,1.03,1.12,1.03,0.982
NCI-H2087,0.224,0.189,0.156,0.175,0.185,0.493,0.445,0.578,0.414,0.392,0.307,0.318,0.248,0.305,0.259,1.15,1.09,1.1,0.974

# — the supplement of paper PMC10307832
